{"source": "patent US20200008426A1", "about": "“ACTIVE COMPOUND COMBINATIONS” (BAYER AKTIENGESELLSCHAFT, priority 2017, published 2020)", "key": {"[1]": {"tested_on": "Puccinia triticina", "experiment": "In vivo preventive Puccinia triticina test (wheat)", "conditions": "8 days after inoculation", "experimental": "After the spray coating has been dried, the plants are sprayed with a spore suspension of Puccinia triticina.\n(§1) The test is evaluated 8 days after the inoculation."}, "[2]": {"tested_on": "Alternaria alternata", "experiment": "In vitro-Test with Alternaria alternata", "assay_type": "cell-based"}, "[3]": {"tested_on": "Botrytis cinerea", "experiment": "In vitro-Test with Botrytis cinerea", "assay_type": "cell-based"}, "[4]": {"tested_on": "Pyrenophora teres", "experiment": "In vitro-Test with Pyrenophora teres", "assay_type": "cell-based"}, "[5]": {"tested_on": "fish (Danio rerio) embryos", "experiment": "In vivo ecotoxicity screening test on fish (Danio rerio)", "conditions": "active compound alone; fish embryos, 96 h, 28.5° C.", "experimental": "with ECxi the Effect Concentration (EC) of each chemical i (in ppm) causing x % effect on the ecotoxicity test endpoint.\nFor each compound combination, the predicted ECx value is calculated. It is then compared to an experimentally measured value. The ratio of predicted versus measured effect for the combination (thereafter called the Model Deviation Ratio or MDR) is then calculated.\nThe environmental effect of the compound combinations was measured experimentally in laboratory ecotoxicity screening studies with fish (Danio rerio). […] Mortality was recorded after 96 h for each tested concentration and a reference control. […] Then, the MDR values were calculated.\n• Solvent: 0.5% by weight dimethyl sulfoxide\nThis concentrate is then diluted with water to the desired a.i. concentration, leading to a maximal solvent concentration of 0.5% by weight. The compounds alone and the combinations were tested for five increasing concentrations between 0.01 and 1000 ppm a.i., (e.g. 0.1, 1.0, 10 and 100 ppm a.i). For the combinations, compounds A and B were mixed in a weight ratio of 5:1 to 1:5 and five increasing concentrations were tested for each ratio."}, "[6]": {"tested_on": "Blumeria graminis f.sp. hordei", "experiment": "In vivo preventive Blumeria test (barley)", "conditions": "Table F1, 7 days after inoculation"}, "[7]": {"tested_on": "Septoria tritici", "experiment": "In vivo preventive Septoria tritici test (wheat)", "conditions": "21 days after inoculation", "experimental": "After the spray coating has been dried, the plants are sprayed with a spore suspension of Septoria tritici.\nThe test is evaluated 21 days after the inoculation."}, "[8]": {"tested_on": "Septoria tritici", "experiment": "In vitro-Test with Septoria tritici", "assay_type": "cell-based", "conditions": "compound alone"}, "[9]": {"tested_on": "Ustilago avenae", "experiment": "In vitro-Test with Ustilago avenae", "assay_type": "cell-based", "conditions": "5 ppm, compound alone"}, "[10]": {"tested_on": "Venturia inaequalis", "experiment": "In vivo preventive test on Venturia (apples)", "conditions": "Table E1, 10 days after inoculation", "experimental": "The test is evaluated 10 days after the inoculation."}, "[11]": {"tested_on": "Leptosphaeria nodorum", "experiment": "In vivo preventive Leptosphaeria nodorum test (wheat)", "conditions": "Table G1, 8 days after inoculation", "experimental": "After the spray coating has been dried, the plants are sprayed with a spore suspension of Leptosphaeria nodorum.\nas §1"}}, "note": "Values joined by “and” are separate entries in the source; they are usually repeats but may differ in a detail not shown here. Equal values may be shown once."}
{"smiles": "Cn1cc(C(=O)Nc2ccc(F)cc2-c2ccc(Cl)c(Cl)c2)c(C(F)F)n1", "note": "[Example 2.002, bixafen]", "values": [{"measurement": "Efficacy in % found", "setting": "[1]; Table H1, 25 ppm a.i.", "value": 22, "unit": "%"}, {"measurement": "Efficacy in % found", "setting": "[1]; Table H1, 50 ppm a.i.", "value": 33, "unit": "%"}, {"measurement": "Efficacy in % found", "setting": "[1]; Table H1, 100 ppm a.i.", "value": 67, "unit": "%"}, {"measurement": "Efficacy %", "setting": "[2]; 0.04 ppm", "value": 55, "unit": "%"}, {"measurement": "Efficacy %", "setting": "[2]; 0.2 ppm", "value": "84% and 57%"}, {"measurement": "Efficacy %", "setting": "[2]; 1 ppm", "value": 88, "unit": "%"}, {"measurement": "Efficacy %", "setting": "[3]; 1 ppm", "value": 63, "unit": "%"}, {"measurement": "Efficacy %", "setting": "[3]; 5 ppm", "value": 91, "unit": "%"}, {"measurement": "Efficacy %", "setting": "[4]; 0.2 ppm", "value": 46, "unit": "%"}, {"measurement": "Efficacy %", "setting": "[4]; 1 ppm", "value": 60, "unit": "%"}, {"measurement": "Efficacy %", "setting": "[4]; 5 ppm", "value": 72, "unit": "%"}, {"measurement": "Ecotoxicity LC50-96 h found", "setting": "[5]", "value": 0.154, "unit": "ppm a.i."}]}
{"smiles": "O=C(NCCc1ncc(C(F)(F)F)cc1Cl)c1ccccc1C(F)(F)F", "note": "[Example 2.005, fluopyram]", "values": [{"measurement": "Efficacy in % found", "setting": "[6]; 15 ppm a.i.", "value": 0, "unit": "%"}, {"measurement": "Efficacy in % found", "setting": "[6]; 30 ppm a.i.", "value": 0, "unit": "%"}, {"measurement": "Efficacy in % found", "setting": "[6]; 60 ppm a.i.", "value": 29, "unit": "%"}, {"measurement": "Efficacy in % found", "setting": "[1]; 15 ppm a.i.", "value": 0, "unit": "%"}, {"measurement": "Efficacy in % found", "setting": "[1]; 30 ppm a.i.", "value": 0, "unit": "%"}, {"measurement": "Efficacy in % found", "setting": "[1]; 60 ppm a.i.", "value": 0, "unit": "%"}, {"measurement": "Efficacy in % found", "setting": "[1]; Table H1, 15 ppm a.i.", "value": 0, "unit": "%"}, {"measurement": "Efficacy in % found", "setting": "[1]; Table H1, 30 ppm a.i.", "value": 0, "unit": "%"}, {"measurement": "Efficacy in % found", "setting": "[1]; Table H1, 60 ppm a.i.", "value": 33, "unit": "%"}, {"measurement": "Efficacy in % found", "setting": "[7]; 30 ppm a.i.", "value": "38% and 29%"}, {"measurement": "Efficacy in % found", "setting": "[7]; 60 ppm a.i.", "value": "88% and 71%"}, {"measurement": "Efficacy %", "setting": "[8]; 0.04 ppm", "value": "43% and 22%"}, {"measurement": "Efficacy %", "setting": "[8]; 0.2 ppm", "value": "93% and 67%"}, {"measurement": "Efficacy %", "setting": "[9]", "value": 0, "unit": "%"}, {"measurement": "Ecotoxicity LC50-96 h found", "setting": "[5]", "value": ">200", "unit": "ppm a.i."}]}
{"smiles": "O=C(Nc1ccccc1)N(Cc1ccc(Cl)cc1)C1CCCC1", "note": "[Example 4.005, pencycuron]", "values": [{"measurement": "Efficacy in % found", "setting": "[10]; 25 ppm a.i.", "value": 0, "unit": "%"}, {"measurement": "Efficacy in % found", "setting": "[10]; 50 ppm a.i.", "value": 0, "unit": "%"}, {"measurement": "Efficacy in % found", "setting": "[10]; 100 ppm a.i.", "value": 4, "unit": "%"}, {"measurement": "Efficacy in % found", "setting": "[11]; 62.5 ppm a.i.", "value": 14, "unit": "%"}, {"measurement": "Efficacy in % found", "setting": "[11]; 125 ppm a.i.", "value": 14, "unit": "%"}, {"measurement": "Efficacy in % found", "setting": "[11]; 250 ppm a.i.", "value": 29, "unit": "%"}, {"measurement": "Efficacy in % found", "setting": "[1]; 62.5 ppm a.i.", "value": 0, "unit": "%"}, {"measurement": "Efficacy in % found", "setting": "[7]; 62.5 ppm a.i.", "value": 0, "unit": "%"}, {"measurement": "Efficacy in % found", "setting": "[7]; 125 ppm a.i.", "value": 0, "unit": "%"}, {"measurement": "Efficacy in % found", "setting": "[7]; 250 ppm a.i.", "value": 0, "unit": "%"}, {"measurement": "Efficacy %", "setting": "[4]; 20 ppm", "value": 17, "unit": "%"}, {"measurement": "Efficacy %", "setting": "[4]; 100 ppm", "value": 5, "unit": "%"}, {"measurement": "Efficacy %", "setting": "[8]; 20 ppm", "value": 8, "unit": "%"}, {"measurement": "Efficacy %", "setting": "[8]; 100 ppm", "value": 0, "unit": "%"}, {"measurement": "Ecotoxicity LC50-96 h found", "setting": "[5]", "value": ">200", "unit": "ppm a.i."}]}
{"smiles": "CCCOc1nc2ccc(I)cc2c(=O)n1CCC", "note": "[Example 13.004, proquinazid]", "values": [{"measurement": "Efficacy in % found", "setting": "[10]; 12.5 ppm a.i.", "value": 0, "unit": "%"}, {"measurement": "Efficacy in % found", "setting": "[10]; 25 ppm a.i.", "value": 0, "unit": "%"}, {"measurement": "Efficacy in % found", "setting": "[10]; 50 ppm a.i.", "value": 0, "unit": "%"}, {"measurement": "Efficacy in % found", "setting": "[11]; 250 ppm a.i.", "value": 0, "unit": "%"}, {"measurement": "Efficacy in % found", "setting": "[11]; 500 ppm a.i.", "value": 14, "unit": "%"}, {"measurement": "Efficacy in % found", "setting": "[11]; 1000 ppm a.i.", "value": 14, "unit": "%"}, {"measurement": "Efficacy in % found", "setting": "[7]; 250 ppm a.i.", "value": 0, "unit": "%"}, {"measurement": "Efficacy in % found", "setting": "[7]; 500 ppm a.i.", "value": 0, "unit": "%"}, {"measurement": "Efficacy in % found", "setting": "[7]; 1000 ppm a.i.", "value": 0, "unit": "%"}, {"measurement": "Efficacy %", "setting": "[2]; 0.8 ppm", "value": 0, "unit": "%"}, {"measurement": "Efficacy %", "setting": "[2]; 4 ppm", "value": 0, "unit": "%"}, {"measurement": "Efficacy %", "setting": "[8]; 20 ppm", "value": 55, "unit": "%"}, {"measurement": "Efficacy %", "setting": "[8]; 100 ppm", "value": 28, "unit": "%"}, {"measurement": "Ecotoxicity LC50-96 h found", "setting": "[5]", "value": 9.89, "unit": "ppm a.i."}]}
